The results in this text go back to EP1444982A1, “The use of purine derivatives as selective kinase inhibitors” (MERCKLE GMBH, priority 2003, dated 2004).

Each structure is given as a SMILES string.

Assay type in all cases: biochemical
The target in one experiment is c-RAF (h) (Homo sapiens, UniProt P04049). Description: Kinase inhibition assay (33P-ATP, P30 filter, scintillation counting): c-RAF. The following applies: 40 min; 30µM Testsubstanz (100 µM ATP); read-out: Hemmung von Kinasen in % c-RAF (h).
For another experiment, the target named is GSK3β (h) (Homo sapiens, UniProt P49841). Nature of the experiment: Kinase inhibition assay (33P-ATP, P30 filter, scintillation counting): GSK3β. The following applies: 30µM Testsubstanz (100 µM ATP); read-out: Hemmung von Kinasen in % GSK3β (h).
Another experiment addresses JNK3 (r) (Rattus norvegicus, UniProt P49187). Nature of the experiment: Kinase inhibition assay: JNK3. The settings on record: 30µM Testsubstanz (100 µM ATP); read-out: Hemmung von Kinasen in % JNK3 (r). An excerpt:
(§1) Alle Kinasen werden auf zehnfache Arbeitskonzentration vor Anwendung in dem Essay verdünnt. Die Zusammensetzung des Verdünnungspuffers ist für jede Kinase in der nachfolgenden Tabelle angegeben.
(§2) Alle Substrate werden gelöst und auf eine Stammlösung in entsalztem Wasser verdünnt.

The target in a further experiment is Lck (h) (Homo sapiens, UniProt P06239). Description: Kinase inhibition assay (33P-ATP, P30 filter, scintillation counting): Lck. The settings on record: 30µM Testsubstanz (100 µM ATP); read-out: Hemmung von Kinasen in % Lck (h).
In a further experiment the target is MAPK1 (h) (Homo sapiens, UniProt P27361). Nature of the experiment: Kinase inhibition assay: MAPK1. The settings on record: 30µM Testsubstanz (100 µM ATP); read-out: Hemmung von Kinasen in % MAPK1 (h).
Text: as §1, §2

Another experiment deals with MAPK2 (h) (Homo sapiens, UniProt P28482). Description: Kinase inhibition assay: MAPK2. The following applies: 30µM Testsubstanz (100 µM ATP); read-out: Hemmung von Kinasen in % MAPK2 (h).
Text: as §1, §2

The target of a further experiment is MEK1 (h) (Homo sapiens, UniProt Q02750). Nature of the experiment: Kinase inhibition assay: MEK1 (coupled to MAPK2 assay). The settings on record: 30µM Testsubstanz (100 µM ATP); read-out: Hemmung von Kinasen in % MEK1 (h).
The next experiment relates to PKA (h). Description: Kinase inhibition assay (33P-ATP, P30 filter, scintillation counting): PKA. The following applies: 30µM Testsubstanz (100 µM ATP); 40 min.
Another experiment has as its target PKB (h) (Homo sapiens, UniProt P31749). Description: Kinase inhibition assay (33P-ATP, P30 filter, scintillation counting): PKB. The settings on record: 40 min; 30µM Testsubstanz (100 µM ATP); read-out: Hemmung von Kinasen in % PKB (h).
The next experiment has as its system ROCKII (h). Nature of the experiment: Kinase inhibition assay (33P-ATP, P30 filter, scintillation counting): ROCK-II. The settings on record: 30µM Testsubstanz (100 µM ATP); 40 min.
In a further experiment the target is SAPK2a (h) (Homo sapiens, UniProt Q16539). Description: Kinase inhibition assay (33P-ATP, P30 filter, scintillation counting): SAPK2a. The following applies: 30µM Testsubstanz (100 µM ATP); read-out: Hemmung von Kinasen in % SAPK2a (h).
Sequence of SAPK2a (h) (Q16539 whole entry): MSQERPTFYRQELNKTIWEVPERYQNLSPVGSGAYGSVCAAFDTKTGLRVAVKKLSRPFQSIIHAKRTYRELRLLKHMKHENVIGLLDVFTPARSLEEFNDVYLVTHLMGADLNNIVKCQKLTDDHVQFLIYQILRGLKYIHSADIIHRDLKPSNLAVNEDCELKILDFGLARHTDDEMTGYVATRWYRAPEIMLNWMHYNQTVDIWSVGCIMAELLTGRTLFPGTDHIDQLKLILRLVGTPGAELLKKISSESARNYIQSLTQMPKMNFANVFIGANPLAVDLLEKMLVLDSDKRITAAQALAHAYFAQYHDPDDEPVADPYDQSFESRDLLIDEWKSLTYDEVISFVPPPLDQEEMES

Sequence of Lck (h) (P06239 whole entry): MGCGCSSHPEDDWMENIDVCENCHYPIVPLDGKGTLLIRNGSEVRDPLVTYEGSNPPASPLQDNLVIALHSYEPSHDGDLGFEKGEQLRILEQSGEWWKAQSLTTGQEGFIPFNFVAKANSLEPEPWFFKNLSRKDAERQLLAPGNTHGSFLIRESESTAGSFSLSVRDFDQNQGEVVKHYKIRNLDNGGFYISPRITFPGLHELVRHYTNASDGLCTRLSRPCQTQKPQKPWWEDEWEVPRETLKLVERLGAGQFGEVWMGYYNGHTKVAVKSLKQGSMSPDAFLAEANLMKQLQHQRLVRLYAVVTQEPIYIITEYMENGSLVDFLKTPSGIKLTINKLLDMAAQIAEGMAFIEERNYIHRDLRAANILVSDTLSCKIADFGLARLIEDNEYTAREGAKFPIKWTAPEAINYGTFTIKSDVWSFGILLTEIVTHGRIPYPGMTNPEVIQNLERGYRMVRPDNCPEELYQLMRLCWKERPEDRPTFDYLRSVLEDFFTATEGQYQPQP
Sequence of JNK3 (r) (P49187 whole entry): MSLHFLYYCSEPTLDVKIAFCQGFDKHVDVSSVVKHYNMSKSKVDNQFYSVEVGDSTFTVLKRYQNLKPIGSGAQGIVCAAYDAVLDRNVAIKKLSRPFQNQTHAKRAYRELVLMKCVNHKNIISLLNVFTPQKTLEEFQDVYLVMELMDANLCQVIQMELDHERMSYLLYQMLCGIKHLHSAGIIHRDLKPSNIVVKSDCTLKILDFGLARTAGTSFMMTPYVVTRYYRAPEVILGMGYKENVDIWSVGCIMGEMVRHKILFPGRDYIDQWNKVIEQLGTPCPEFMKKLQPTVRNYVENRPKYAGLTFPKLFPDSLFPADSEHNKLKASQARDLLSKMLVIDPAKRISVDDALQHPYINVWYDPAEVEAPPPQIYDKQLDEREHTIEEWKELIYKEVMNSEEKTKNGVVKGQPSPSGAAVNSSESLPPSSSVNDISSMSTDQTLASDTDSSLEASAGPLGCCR
Sequence of GSK3β (h) (P49841 whole entry): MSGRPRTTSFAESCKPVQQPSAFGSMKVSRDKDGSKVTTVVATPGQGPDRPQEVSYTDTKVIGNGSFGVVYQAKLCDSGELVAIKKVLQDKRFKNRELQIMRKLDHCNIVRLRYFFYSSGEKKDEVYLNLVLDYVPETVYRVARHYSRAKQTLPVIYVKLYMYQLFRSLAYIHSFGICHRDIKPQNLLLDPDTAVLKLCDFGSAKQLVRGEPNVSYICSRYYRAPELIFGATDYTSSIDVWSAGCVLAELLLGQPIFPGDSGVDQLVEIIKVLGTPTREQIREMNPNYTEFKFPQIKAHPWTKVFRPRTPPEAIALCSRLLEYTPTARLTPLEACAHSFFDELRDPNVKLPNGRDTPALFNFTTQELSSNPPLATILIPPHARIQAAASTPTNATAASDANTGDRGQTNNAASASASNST
Sequence of MAPK1 (h) (P27361 whole entry): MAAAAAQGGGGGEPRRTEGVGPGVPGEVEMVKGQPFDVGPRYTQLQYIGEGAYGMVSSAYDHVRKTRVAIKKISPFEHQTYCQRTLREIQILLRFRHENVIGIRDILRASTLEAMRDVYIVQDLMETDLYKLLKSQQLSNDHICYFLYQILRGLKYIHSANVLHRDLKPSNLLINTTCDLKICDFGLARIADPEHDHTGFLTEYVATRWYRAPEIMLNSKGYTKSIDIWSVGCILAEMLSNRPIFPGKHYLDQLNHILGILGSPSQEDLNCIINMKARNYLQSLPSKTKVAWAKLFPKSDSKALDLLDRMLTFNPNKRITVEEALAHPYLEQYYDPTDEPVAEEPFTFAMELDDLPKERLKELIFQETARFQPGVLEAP
Sequence of MEK1 (h) (Q02750 whole entry): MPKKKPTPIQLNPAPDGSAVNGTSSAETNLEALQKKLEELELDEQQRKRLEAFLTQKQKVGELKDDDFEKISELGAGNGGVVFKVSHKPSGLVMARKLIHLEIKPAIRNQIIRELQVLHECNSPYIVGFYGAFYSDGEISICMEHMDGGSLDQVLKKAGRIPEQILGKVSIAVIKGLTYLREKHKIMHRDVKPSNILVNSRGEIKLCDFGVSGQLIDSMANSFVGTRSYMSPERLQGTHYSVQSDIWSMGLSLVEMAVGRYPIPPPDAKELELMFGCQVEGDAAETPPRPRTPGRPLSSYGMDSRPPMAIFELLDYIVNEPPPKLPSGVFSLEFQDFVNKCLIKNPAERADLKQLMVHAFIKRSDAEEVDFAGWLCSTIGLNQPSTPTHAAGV
Sequence of MAPK2 (h) (P28482 whole entry): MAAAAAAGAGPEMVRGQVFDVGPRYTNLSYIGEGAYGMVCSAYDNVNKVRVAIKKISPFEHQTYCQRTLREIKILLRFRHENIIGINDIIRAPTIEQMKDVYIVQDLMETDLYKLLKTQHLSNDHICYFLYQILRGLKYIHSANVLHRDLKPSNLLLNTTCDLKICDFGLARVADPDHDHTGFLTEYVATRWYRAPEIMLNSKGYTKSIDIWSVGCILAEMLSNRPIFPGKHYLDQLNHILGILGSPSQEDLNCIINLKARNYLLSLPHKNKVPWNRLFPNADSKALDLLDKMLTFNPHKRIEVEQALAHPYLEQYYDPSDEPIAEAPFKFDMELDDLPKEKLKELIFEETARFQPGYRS
Sequence of PKB (h) (P31749 whole entry): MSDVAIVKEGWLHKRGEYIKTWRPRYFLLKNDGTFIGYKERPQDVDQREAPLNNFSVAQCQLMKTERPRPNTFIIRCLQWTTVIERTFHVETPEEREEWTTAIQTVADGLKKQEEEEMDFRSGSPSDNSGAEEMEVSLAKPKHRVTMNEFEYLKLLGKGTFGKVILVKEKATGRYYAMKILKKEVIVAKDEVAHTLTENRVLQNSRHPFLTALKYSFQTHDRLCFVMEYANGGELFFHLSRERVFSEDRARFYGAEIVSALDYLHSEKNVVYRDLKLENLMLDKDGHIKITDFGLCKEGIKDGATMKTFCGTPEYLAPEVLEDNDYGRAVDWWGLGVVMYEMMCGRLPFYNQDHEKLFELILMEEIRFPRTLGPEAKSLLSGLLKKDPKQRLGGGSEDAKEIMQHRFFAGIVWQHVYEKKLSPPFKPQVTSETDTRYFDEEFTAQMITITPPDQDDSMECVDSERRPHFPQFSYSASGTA
Sequence of c-RAF (h) (P04049 whole entry): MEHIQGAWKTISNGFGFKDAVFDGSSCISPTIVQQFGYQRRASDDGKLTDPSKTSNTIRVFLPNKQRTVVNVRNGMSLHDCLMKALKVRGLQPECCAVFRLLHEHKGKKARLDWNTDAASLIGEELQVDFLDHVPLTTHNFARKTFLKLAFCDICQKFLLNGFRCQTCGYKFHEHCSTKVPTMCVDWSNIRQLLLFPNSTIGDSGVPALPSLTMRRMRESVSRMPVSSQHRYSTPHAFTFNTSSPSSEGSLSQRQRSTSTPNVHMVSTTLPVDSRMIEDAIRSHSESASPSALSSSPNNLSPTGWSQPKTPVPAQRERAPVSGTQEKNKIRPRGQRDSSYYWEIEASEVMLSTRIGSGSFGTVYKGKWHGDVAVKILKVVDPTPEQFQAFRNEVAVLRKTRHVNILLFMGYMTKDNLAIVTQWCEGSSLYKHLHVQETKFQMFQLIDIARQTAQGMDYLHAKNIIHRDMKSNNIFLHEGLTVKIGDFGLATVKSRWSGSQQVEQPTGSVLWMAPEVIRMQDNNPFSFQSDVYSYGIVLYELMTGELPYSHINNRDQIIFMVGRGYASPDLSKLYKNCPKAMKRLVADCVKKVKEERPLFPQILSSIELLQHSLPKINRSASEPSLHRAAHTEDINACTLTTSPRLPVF

Regarding `Fc1ccc(Sc2ncnc3c2ncn3Cc2ccccc2)cc1` [Verbd. 75, 9-Benzyl-6-(4-fluoro-phenylsulfanyl)-9H-purin], the inhibition at 30 µM on c-RAF (h) is 0%; on GSK3β (h) it was 0%; at JNK3 (r) it was 0%; on Lck (h) it was 16%; at MAPK1 (h), 0%; on MAPK2 (h), 0%. In addition, the inhibition at 30 µM on MEK1 (h) turned out to be 4%; at PKB (h), 1%; on SAPK2a (h), 64%. In the experiment with PKA (h), the “Hemmung von Kinasen in % PKA (h)” value is on record as 0%. For the same compound, the “Hemmung von Kinasen in % ROCKII (h)” value with ROCKII (h) was determined as 5%.

On to `Cn1cnc2c(Nc3ccc(F)cc3)ncnc21` [Verbd. 14, (4-Fluoro-phenyl)-(9-methyl-9H-purin-6-yl)-amin], for which the inhibition at 30 µM was 27% at c-RAF (h); 14% on GSK3β (h); 19% at JNK3 (r); 9% on Lck (h); 36% at MAPK1 (h); 57% at MAPK2 (h). Further, the figures for the inhibition at 30 µM on MEK1 (h), on PKB (h) and at SAPK2a (h) were 8%, 0% and 13%, respectively. Further, the “Hemmung von Kinasen in % PKA (h)” value in the experiment with PKA (h) turned out to be 0%. Also, the “Hemmung von Kinasen in % ROCKII (h)” value in the experiment with ROCKII (h) was 7%.
